Activity calls are given as the source filed them. No rule for the calls is given here.
Target: UPR counterscreen luciferase reporter, luminescence
Assay: activators in UPR counterscreen luciferase reporter, dose response, counter-screen for adaptive UPR activator project, cell-based, luminescence (AID 489027)

Row | Compound | EC50
1 | CCOC(=O)c1nnc(-c2ccccc2)nc1Sc1ccccc1Cl | 14.3 µM
2 | Cc1ccc(NC(=O)Cn2c(/C=C/c3ccccc3)nc3ccccc32)cc1C | > 80 µM (inactive)
3 | O=c1cc(CN2CCN(c3ccc(F)cc3)CC2)c2cc3c(cc2o1)CCCC3 | 8.79 µM
4 | COc1ccc(-n2c(C)cc(C(=O)CCl)c2C)cc1 | 5.8 µM
5 | Cc1ccc(NC(=O)c2ccc(N/N=C/c3cccc(O)c3)c([N+](=O)[O-])c2)cc1 | 6.64 µM
6 | CC1CCN(Cc2c(C(=O)N/N=C/c3ccc(C(C)C)cc3)nnn2-c2nonc2N)CC1 | inactive
7 | CN(C)c1ccc(/C=N/NC(=O)c2ccc(NC(=O)c3ccccc3)cc2)cc1 | inactive
8 | FC(F)(F)c1nc2ccccc2n2c(-c3ccc(Cl)cc3)nnc12 | 13.6 µM
9 | COc1ccc2nc(NC(=O)c3cccc(-c4cc5ccccc5oc4=O)c3)sc2c1 | > 80 µM (inactive)
10 | CN(c1ccccc1)S(=O)(=O)c1cccc(C(=O)NCCc2ccc(O)c(O)c2)c1 | 6.18 µM
11 | N#Cc1ccc(-c2ccc(Cl)cc2)nc1SCC(=O)c1cccc(Cl)c1 | 8.05 µM
12 | CCOc1ccccc1NC(=O)Cn1c(=O)n(-c2ccccc2)c(=O)c2oc3ccccc3c21 | > 80 µM (inactive)
13 | Brc1cc2c(cc1/C=N/Nc1nc3ccccc3s1)OCO2 | > 80 µM (inactive)
14 | CCOC(=O)c1nnc(-c2ccccc2)nc1Sc1c(Cl)cccc1Cl | 12.9 µM
15 | COc1cc(/C=N/Nc2nc(Nc3ccc(C)cc3)nc(-n3nc(C)cc3C)n2)cc(OC)c1OC | > 80 µM (inactive)
16 | COc1ccc(C2c3ccc4ccccc4c3Oc3ncn(CCCN(C)C)c(=N)c32)cc1 (configuration not stated) | 8.25 µM
17 | CCc1ccccc1NC(=O)C(CC)Sc1nc2cc3c(cc2c(=O)n1Cc1ccco1)OCO3 (configuration not stated) | 11.6 µM
18 | COc1cc(/C=C/c2ccc3cccc(O)c3n2)ccc1O | 7.62 µM
19 | Cc1ccc(-c2nc(N/N=C/c3cccc([N+](=O)[O-])c3)c3ccccc3n2)cc1 | > 80 µM (inactive)
20 | O=C(/C=C/c1ccc(Cl)cc1)NC(=S)Nc1ccc(N2CCOCC2)c(Cl)c1 | > 80 µM (inactive)
21 | CCCCCc1nc2c(c(=O)c3ccccc3n2C)c(=O)n1C1CCCCCC1 | 15.3 µM
22 | Cc1ccc2c(c1)C(=O)C(=O)N2Cc1ccc(Cl)cc1 | inactive
23 | CCc1cc2c(C)ccc(C)c2nc1SCC(=O)Nc1c[nH]c(=O)[nH]c1=O | 16.8 µM

Row | Compound | EC50
24 | COc1ccc(C(CCNCc2ccc(F)cc2)c2ccc(F)cc2)cc1 (configuration not stated) | 13.6 µM
25 | O=[N+]([O-])c1ccc(N/N=C/c2ccc(OCc3cccc4ccccc34)cc2)nc1 | > 80 µM (inactive)
26 | Cc1cc(N2CCN(c3ccc([N+](=O)[O-])c4cccnc34)CC2)c2ccccc2n1 | inactive
27 | COc1ccc(C(CCNC(C)c2ccccc2)c2ccc(F)cc2)cc1 (configuration not stated) | inactive
28 | COC(=O)c1ccc(COc2ccccc2/C=C(\C#N)C(=O)Nc2c(C)cccc2C)cc1 | 17.4 µM
29 | O=C(/C=C/c1cc([N+](=O)[O-])ccc1OC(F)F)Nc1cccc([N+](=O)[O-])c1 | > 80 µM (inactive)
30 | CC(=O)c1cccc(Nc2nc(-c3cccc([N+](=O)[O-])c3)cs2)c1 | > 80 µM (inactive)
31 | COc1ccc(-c2nn(-c3ccccc3)cc2/C=N/N2C(=O)CSC2=S)cc1 | > 80 µM (inactive)
32 | O=C1Nc2ccccc2/C1=C/c1ccc([N+](=O)[O-])cc1 | inactive
33 | Cc1cc(C)c2c(c1)/C(=c1/sc3n(c1=O)CN(c1ccccc1)CN=3)C(=O)N2 | 10.5 µM
34 | COc1ccc(Cn2c(SCc3ccccc3C)nc3cc(OC)c(OC)cc3c2=N)cc1 | 9.65 µM
35 | N#C/C(=C\c1ccc(N2CCCC2)c([N+](=O)[O-])c1)c1nc2ccccc2[nH]1 | > 80 µM (inactive)
36 | O=C(/C=C1\NC2(CCCC2)Cc2ccccc21)C(=O)N/N=C/c1ccc(O)c(O)c1 | 10.4 µM
37 | CC(=O)Oc1ccc(-c2ccc(C(=O)OCC(=O)N(C)CC(=O)Nc3ccccc3Cl)cc2)cc1 | 3.02 µM
38 | Cc1c(CCOC(=O)C23CC4(C)CC(C)(CC(C)(C4)C2)C3)sc[n+]1CC(=O)c1ccccc1 | > 80 µM (inactive)
39 | Cc1ccc(O)c(NC(=S)NC(=O)Cc2ccc(Cl)cc2)c1 | inactive
40 | Cc1cc(NC(=O)c2cncc(Br)c2)ccc1NC(=O)c1cc2ccccc2o1 | > 80 µM (inactive)
41 | COc1ccc(NC(=O)c2sc3nc(N4CCOCC4)c4c(c3c2N)CC(C)(C)OC4)c(OC)c1 | 19.3 µM
42 | COc1ccc(C2CC(c3c(-c4ccccc4)c4cc(Cl)ccc4[nH]c3=O)=NN2S(C)(=O)=O)cc1 (configuration not stated) | > 80 µM (inactive)
43 | CCCCCCCC(=O)Nc1ccc(C(=O)N/N=C/c2cccc([N+](=O)[O-])c2)cc1 | 2.33 µM
44 | COc1ccc(CNC(=O)/C(C#N)=C/c2cccc(OC)c2OC)cc1 | inactive
45 | CCN(CC)c1ccc(N=Cc2c(O)n(-c3ccc(Cl)cc3)c(=O)[nH]c2=O)cc1 | 20 µM
46 | COc1ccc(CCn2c(C3CCCCC3)nc3c(c(=O)c4ccccc4n3C)c2=O)cc1 | > 80 µM (inactive)

Row | Compound | EC50
47 | O=C(O)c1ccc(N2C(=O)/C(=C/c3ccc(-c4ccc([N+](=O)[O-])cc4)o3)C=C2c2ccccc2)cc1 | > 80 µM (inactive)
48 | CN(C)CCCN(C(=O)c1ccc(S(=O)(=O)N2CCCCCC2)cc1)c1nc2ccc(Br)cc2s1 | 12.7 µM
49 | O=C(Nc1ccc(Br)cc1)c1cc(-c2ccncc2)nc2ccccc12 | 12.7 µM
50 | CCCCN1C(=O)/C(=C2/Sc3ccc(OC)cc3N2CC)SC1=S | inactive
51 | CCOc1cc(/C=N\Nc2ccc([N+](=O)[O-])cc2)ccc1OCC(=O)Nc1ccc(C)c(C)c1 | > 80 µM (inactive)
52 | CCOC(=O)c1[nH]c2ccc(Cl)cc2c1NC(=O)/C=C/c1ccc2c(c1)OCO2 | inactive
53 | COc1ccc(-c2coc3cc4oc(=O)cc(-c5ccccc5)c4cc23)cc1F | inactive
54 | CCOc1cc(/C=N/NC(N)=S)cc(Br)c1OCc1ccccc1C | 12.5 µM
55 | NS(=O)(=O)c1ccc(N/N=C/c2cn(-c3ccccc3)nc2-c2cccs2)c([N+](=O)[O-])c1 | > 80 µM (inactive)
56 | Cc1ccccc1NC(=O)c1ccc(N/N=C/c2ccccc2O)c([N+](=O)[O-])c1 | 7.98 µM
57 | CCCc1nc2ccccc2c(=O)n1/N=C/c1ccc(O)c(O)c1 | 15 µM
58 | COCc1cc(C)nc(OCC(=O)N/N=C/c2ccc(-c3cc([N+](=O)[O-])ccc3Cl)o2)c1C#N | 13.6 µM
59 | COc1ccc(NC(=O)CSc2nc3ccc(Nc4nc(N5CCOCC5)nc(N5CCOCC5)n4)cc3s2)cc1 | > 80 µM (inactive)
60 | CCOc1ccc(-c2nnc(SCC(=O)Nc3ccc4c(c3)c3ccccc3n4CC)n2N)cc1 | 14.6 µM
61 | CCOC(=O)C1=C(O)/C(=C/c2cn(CC(=O)NCC3CCCO3)c3ccccc23)SC1=Nc1ccc(C)cc1 (configuration not stated) | > 80 µM (inactive)
62 | COc1ccc2cc3c(N)nn(C(=O)C4CCC(C(C)(C)C)CC4)c3nc2c1 (configuration not stated) | > 80 µM (inactive)
63 | CN(C)CCCN(C(=O)c1cc(-c2cccs2)nc2ccccc12)c1nc2ccc(F)cc2s1 | 15.9 µM
64 | Cc1ccc(-c2[nH]ncc2/C=N/n2c(COc3ccccc3)nc3ccccc3c2=O)cc1 | inactive
65 | O=C(C[n+]1ccc(-c2cc(C(=O)Nc3cccc(C(F)(F)F)c3)c3ccccc3n2)cc1)c1cccc([N+](=O)[O-])c1 | 16.8 µM
66 | Cn1c2ccccc2c2cc(/C=N/NC(=O)c3cc(O)ccc3O)ccc21 | 4.02 µM
67 | CCCC[C@@H](C)C[C@@H](C)C(=O)N(C)[C@@H](CC(C)C)C(=O)N[C@H](C(=O)N(C)[C@H](C(=O)N1C[C@@H](O)C[C@H]1C(=O)N1C(=O)C=C[C@@H]1C)C(C)C)C(C)OC(C)=O (some centres not stated) | 7.75 µM
68 | Oc1cccc(-c2nc3c4c(ncn3n2)-c2ccccc2CC42CCCC2)c1 | 18.6 µM
69 | CC(C)Cn1c2c(c(=O)[nH]c1=O)C(C(F)(F)F)(C(F)(F)F)N=C(CCC1CCCCC1)N2 | inactive

Row | Compound | EC50
70 | COc1ccc(/C=N/NC(=O)c2cccc([N+](=O)[O-])c2)c2ccccc12 | inactive
71 | O=C(Nc1cccc(-c2nc3cccnc3s2)c1)C1c2ccccc2Oc2ccccc21 | 4.35 µM
72 | CCCCCCCCCn1c2c(c(=N)c3c1CCC3)CCCC2 | 9 µM
73 | COc1cc([C@@H]2c3cc4c(cc3[C@@H](O)[C@H]3COC(=O)[C@H]23)OCO4)cc(OC)c1O[Si](C)(C)C(C)(C)C | 14.6 µM
74 | O=C(Nc1ccc2nc3n(c(=O)c2c1)CCCCC3)c1ccccc1Cl | > 80 µM (inactive)
75 | CCN(CC)c1ccc(C(=O)OCC(=O)Nc2cc3oc4ccccc4c3cc2OC)cc1 | 20 µM
76 | CC(C)c1cccc(-c2ccc3c(c2)S(=O)(=O)c2cccc(C(=O)NCc4ccccc4Cl)c2C3=O)c1 | 7.24 µM
77 | O=C(Nc1ccc(NC(=O)c2sc3ccccc3c2Cl)cc1Cl)c1ccco1 | inactive
78 | CCOC(=O)c1c(NC(=O)CNC2CCCc3ccccc32)sc(C(N)=O)c1C (configuration not stated) | > 80 µM (inactive)
79 | CC(C)N=C(NS(=O)(=O)c1ccccc1)C(Cl)(Cl)Cl | > 80 µM (inactive)
80 | CCOc1ccccc1CNC(=O)C1CCN(c2nnc(C)c3c(C)n(-c4ccc(C)cc4)nc23)CC1 | > 80 µM (inactive)
81 | CC1CCN(Cc2c(C(=O)N/N=C/c3ccc(C(C)(C)C)cc3)nnn2-c2nonc2N)CC1 | 6.58 µM
82 | COc1ccc2cc(C)c3nnc(SCC(=O)Nc4nc(-c5ccc(F)cc5)cs4)n3c2c1 | 13 µM
83 | CCOC(=O)C1=C(C)N=C2c3ccccc3C(=O)C2C1c1ccc(C)cc1 (configuration not stated) | > 80 µM (inactive)
84 | Cc1ccc2c(n1)sc1c(-c3ccc(Br)cc3)c(C#N)c(N)nc12 | > 80 µM (inactive)
85 | O=C(NCc1ccccc1Br)c1cccc2c1C(=O)c1ccc(-c3ccc(OC(F)(F)F)cc3)cc1S2(=O)=O | 9.03 µM
86 | Cc1cc(C)c2sc(N(CCCN(C)C)C(=O)c3ccc(S(=O)(=O)N4CCCc5ccccc54)cc3)nc2c1 | > 80 µM (inactive)
87 | CCC(C)(C)C1CCC2(CC1)NC(=O)N(CC(=O)N1CCN(S(=O)(=O)c3cc(C)ccc3C)CC1)C2=O (configuration not stated) | 19.3 µM
88 | CC1CCc2cc(F)ccc2N1C(=O)CSc1nnc2c(n1)[nH]c1ccc(F)cc12 (configuration not stated) | > 80 µM (inactive)
89 | COc1cc2[nH]c3c(N4CCN(c5ccc(Cl)cc5)CC4)ncnc3c2cc1OC | > 80 µM (inactive)
90 | COc1ccc(S(=O)(=O)N2c3cc(Cl)ccc3Oc3nc4ccccc4nc32)cc1 | > 80 µM (inactive)
91 | Cc1cccc(NC(=O)/C(C#N)=C/c2cn(CC(=O)NCc3ccco3)c3ccccc23)c1C | > 80 µM (inactive)
92 | Cc1ccc(S(=O)(=O)N(CC(=O)N/N=C/c2ccc(F)cc2)c2cccc3cccnc23)cc1 | 1.92 µM

Reference: PubChem BioAssay AID489027 (Sanford-Burnham Center for Chemical Genomics, 2010)
